Our source for the IC50 and viability, T/C values is PubChem BioAssay AID1918930 (Molecular Pharmacology Branch, DTP, NCI, 2023).

The assay has as its system 233499-124-R-J3-PDC complex spheroid viability, % test/control. Briefly: Anticancer human tumor 233499-124-R-J3-PDC patient-derived colon adenocarcinoma cell line growth inhibition. The conditions noted are these: for viability, T/C: stronger effect = lower value. The text has this: Multicellular complex tumor spheroid response to LSD1 Inhibitor Iadademstat in combination with a variety of drugs and investigational agents in selected tumor cell lines
The current study was undertaken to assess response to LSD1 inhibitors in combination with standard-of-care drugs and investigational agents in solid tumor complex spheroid models as well as in the K-562 leukemia. Complex spheroids include a stromal component modeled by human endothelial cells (HUVEC) and fibroblasts modeled by human mesenchymal stem cells (MSCs). The concentration ranges selected for each drug and investigational agent were based upon clinically achievable concentrations if the clinical Cmax of the agent was known.
Compounds. The drugs and investigational agents used in this study are listed on Table 1. All of the agents used, including staurosporine (NSC755774) and gemcitabine (NSC613327), were obtained from the Developmental Therapeutics Program, NCI. FDA-approved anticancer drugs are available from the NCI at http://dtp.nci.nih.gov/branches/dscb/oncology_drugset_explanation.html. Drugs and investigational agents were >95% pure by proton nuclear magnetic resonance (NMR) and liquid chromatography/mass spectrometry (LC/MS). Stock solutions were prepared at 400x in DMSO, stored at -70 degrees C, and diluted in fresh medium prior to their use. The final concentration of DMSO in cell culture wells never exceeded 0.25% (v/v). The FDA-approved anticancer drug set is available from the Developmental Therapeutics Program at https://dtp.cancer.gov/organization/dscb/obtaining/available_plates.htm. All drugs and investigational agents were tested over a range starting from a high concentration at or near the clinical Cmax and decreasing in half-log increments. If the clinical Cmax for an agent had not been determined, the highest concentration tested was 10 microM.
Cell Lines. The patient-derived cancer cell (PDC) lines: 292921-168-R-J2-PDC, K24384-001-R-PDC, and 521955-158-R2-J5-PDC pancreatic carcinomas, 556581-035-R-J1 ovarian carcinoma, 324938-238-R-J1-PDC, 855422-203-R-J1-PDC and 883617-216-R-J1-PDC urothelial bladder carcinomas, 743489-274-T-PDC renal cell carcinoma, 138582-R-J1 Merkel cell tumor, K60290-347-R-J1 and K57222-313-R-J1-PDC glioblastomas, 653999-131-R-J2-PDC, LG0703-F948-PDC, and 349418-098-R-PDC non-small cell lung carcinomas, 885512-296-R-J2-PDC, 171881-019-R-J1-PDC breast carcinomas and 186277-243-T-J2-PDC and 233499-124-R-J2-PDC colon carcinomas were obtained from the NCI Patient-Derived Models Repository (PDMR, https://pdmr.cancer.gov). The established cell lines NCI/ADR-RES (RRID:CVCL_14520 and OVCAR-5 (RRID:CVCL_1628) ovarian carcinomas, 786-O (RRID:CVCL_1051) and A498 (RRID:CVCL_A498) renal cell carcinoma, NCI-H211 (ATCC, cat. CRL-5824; RRID:CVCL_1529), NCI-H196 (ATCC, cat. CRL-5823, RRID:CVCL_1509), SW 1271 (ATCC, cat. CRL-2177, RRID:CVCL_1716) and NCI-H1876 (ATCC, cat. CRL-5902, RRID:CVCL_1503) small cell lung carcinomas, MDA-MB-231 (RRID:CVCL_0062) and MDA-MB-468 (RRID:CVCL_0419)breast carcinomas (10-12). Pooled donor human umbilical vein endothelial cells (HUVEC, Lonza, cat. CC-2519) and human mesenchymal stem cells (hMSC, Lonza, cat. PT-2501) were purchased from Lonza (Walkersville, MD).
Cell Culture. All cells were maintained in an incubator at 37 degrees C and 5% CO2 with 95% humidity. The PDC lines were cultured according to standard operating procedures established by the NCI PDMR (https://pdmr.cancer.gov). Briefly all PDCs were thawed and cultured in Matrigel-coated flasks prepared with a working solution of 1X Ham's F-12 nutrient mix, without supplementation (Invitrogen, Waltham, MA, cat. 11765054), 100 U/mL penicillin-streptomycin (Invitrogen, cat. 15140122), and 2.5% Matrigel (Corning Inc., Corning, NY, cat. 354248) for the first three passages. […]

Where [1] appears, read: curve of first compound, second compound 0.1 µM.
Setting [2] is: curve of first compound, second compound 0.316 µM.
The mark [3] stands for this setting: curve of first compound, second compound 1 µM.
The mark [4] stands for this setting: curve of first compound, second compound 3.16 µM.
[5] abbreviates: curve of first compound, second compound 10 µM.

“And” between values parts separate entries of the source, which are not always exact repeats. Equal entries are not always repeated.
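Also: spheroids exposed to agents for one week before readout.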

For the compound `COc1cc(Nc2ncc3c(n2)-c2ccc(Cl)cc2C(c2c(F)cccc2OC)=NC3)ccc1C(=O)O` + NC1CC1c1ccc(-c2cccc(O)c2)cc1, the IC50 (as a rule, the concentration needed to halve the response being measured) was > 1000 nM under setting [1]; > 1000 nM under setting [2]; < 3.16 nM under setting [3]; < 3.16 nM under setting [4]; < 3.16 nM under setting [5]. The viability, T/C (in general, the result in the treated group divided by that in the control group, in per cent) was 44.5% (second compound 0.1 µM, first compound 0.00316 µM); 54.3% (second compound 0.1 µM, first compound 0.01 µM); 66.4% (second compound 0.1 µM, first compound 0.0316 µM); 72.5% (second compound 0.1 µM, first compound 0.1 µM); 62% (second compound 0.1 µM, first compound 0.316 µM); 102% (second compound 0.1 µM, first compound 1 µM). Further, the viability, T/C runs as follows: (second compound 0.316 µM, first compound 0.00316 µM) 49.5%; (second compound 0.316 µM, first compound 0.01 µM) 59.6%; (second compound 0.316 µM, first compound 0.0316 µM) 64.1%; (second compound 0.316 µM, first compound 0.1 µM) 62.1%; (second compound 0.316 µM, first compound 0.316 µM) 62.8%; (second compound 0.316 µM, first compound 1 µM) 98.4%. In addition, the viability, T/C (second compound 1 µM, first compound 0.00316 µM) was 44.2%; the viability, T/C (second compound 1 µM, first compound 0.01 µM) is 50.7%; the viability, T/C (second compound 1 µM, first compound 0.0316 µM) was 53.2%; the viability, T/C (second compound 1 µM, first compound 0.1 µM) is 54.3%; the viability, T/C (second compound 1 µM, first compound 0.316 µM) was 60.6%; the viability, T/C (second compound 1 µM, first compound 1 µM) is 82.9%. In addition, the viability, T/C (second compound 3.16 µM, first compound 0.00316 µM) is 39.8%; the viability, T/C (second compound 3.16 µM, first compound 0.01 µM) is 52.1%; the viability, T/C (second compound 3.16 µM, first compound 0.0316 µM) was 70.5%; the viability, T/C (second compound 3.16 µM, first compound 0.1 µM) was 57.2%; the viability, T/C (second compound 3.16 µM, first compound 0.316 µM) is 62.5%; the viability, T/C (second compound 3.16 µM, first compound 1 µM) was 88.9%. For the same compound, the viability, T/C (second compound 10 µM, first compound 0.00316 µM) is 33%; the viability, T/C (second compound 10 µM, first compound 0.01 µM) is 48.3%; the viability, T/C (second compound 10 µM, first compound 0.0316 µM) was 56.2%; the viability, T/C (second compound 10 µM, first compound 0.1 µM) is 49%; the viability, T/C (second compound 10 µM, first compound 0.316 µM) is 52.1%; the viability, T/C (second compound 10 µM, first compound 1 µM) was 86.1%.
Turning to `Cn1ncnc1C1c2n[nH]c(=O)c3cc(F)cc(c23)NC1c1ccc(F)cc1` (stereo not drawn), the viability, T/C was 105% and 92.2% (compound 0.000316 µM); 95.1% and 80.9% (compound 0.001 µM); 91.4% and 98% (compound 0.00316 µM); 77.6% and 88.7% (compound 0.01 µM); 77.7% and 85.1% (compound 0.0316 µM); 93.4% and 82.7% (compound 0.1 µM). Further, under “curve of compound”, the IC50 was > 100 nM.
In the case of `CC(C)CC(NC(=O)C(Cc1ccccc1)NC(=O)c1cnccn1)B(O)O` (stereo not drawn), the viability, T/C (compound 0.000316 µM) is 96% and 81.8%; the viability, T/C (compound 0.00316 µM) is 21.4% and 0.26%; the viability, T/C (compound 0.01 µM) was 7.18% and 0.25%; the viability, T/C (compound 0.0316 µM) was 5.21% and 0.25%; the viability, T/C (compound 0.1 µM) is 3.6% and 0.35%. Moreover, the IC50 (curve of compound) was 2.07 nM and 0.496 nM.
Turning to `CCc1c2c(nc3ccc(O)cc13)-c1cc3c(c(=O)n1C2)COC(=O)[C@]3(O)CC` + NC1CCC(NC2CC2c2ccccc2)CC1, the IC50 is 25 nM under setting [1]; 27.5 nM under setting [2]; 29.4 nM under setting [3]; 37.1 nM under setting [4]; 40.5 nM under setting [5]. The viability, T/C runs as follows: (second compound 0.1 µM, first compound 0.000949 µM) 80.5%; (second compound 0.1 µM, first compound 0.003 µM) 99.5%; (second compound 0.1 µM, first compound 0.00949 µM) 89.6%; (second compound 0.1 µM, first compound 0.03 µM) 42.6%; (second compound 0.1 µM, first compound 0.0949 µM) 19.8%; (second compound 0.1 µM, first compound 0.3 µM) 20.4%. The viability, T/C is 99.6% (second compound 0.316 µM, first compound 0.000949 µM); 92.2% (second compound 0.316 µM, first compound 0.003 µM); 107% (second compound 0.316 µM, first compound 0.00949 µM); 46% (second compound 0.316 µM, first compound 0.03 µM); 28.6% (second compound 0.316 µM, first compound 0.0949 µM); 12.8% (second compound 0.316 µM, first compound 0.3 µM). The viability, T/C was 72.6% (second compound 1 µM, first compound 0.000949 µM); 89.5% (second compound 1 µM, first compound 0.003 µM); 95.6% (second compound 1 µM, first compound 0.00949 µM); 49.3% (second compound 1 µM, first compound 0.03 µM); 16.8% (second compound 1 µM, first compound 0.0949 µM); 13.2% (second compound 1 µM, first compound 0.3 µM). The viability, T/C runs as follows: (second compound 3.16 µM, first compound 0.000949 µM) 90.8%; (second compound 3.16 µM, first compound 0.003 µM) 92.1%; (second compound 3.16 µM, first compound 0.00949 µM) 99.7%; (second compound 3.16 µM, first compound 0.03 µM) 56%; (second compound 3.16 µM, first compound 0.0949 µM) 28.5%; (second compound 3.16 µM, first compound 0.3 µM) 18.2%. The viability, T/C was 72.3% (second compound 10 µM, first compound 0.000949 µM); 78.3% (second compound 10 µM, first compound 0.003 µM); 93.2% (second compound 10 µM, first compound 0.00949 µM); 58.8% (second compound 10 µM, first compound 0.03 µM); 27.1% (second compound 10 µM, first compound 0.0949 µM); 22.9% (second compound 10 µM, first compound 0.3 µM).
